Reference: PubChem BioAssay AID330 (DTP/NCI, 2004)
Several values for one entry are separate records, joined by “and”; a condition that tells them apart may be missing. Identical values can stand only once. Toxic doses and inconclusive results are not listed. How the source made its calls: active means survival T/C of 150% or more; inactive means T/C below 125% in these data.

Test system: P388 leukemia ip, CD2F1 mice, survival T/C
Assay: NCI In Vivo Anticancer Drug Screen. Data for tumor model P388 Leukemia (intraperitoneal) in CD2F1 (CDF1) mice
Details: endpoint: median survival time, higher = longer survival
Outline: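 Mice carrying the transplanted tumor received test compound or vehicle. Survival was recorded in each group, and the value is the treated-group measurement divided by that of the vehicle-treated control group.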

[1] = dose: 100.0 mg/kg/injection, schedule: Q01DX001 (ip), vehicle: Klucel (hydroxypropylcellulose) (HPC)
[2] = dose: 200.0 mg/kg/injection, schedule: Q01DX001 (ip), vehicle: Klucel (hydroxypropylcellulose) (HPC)
[3] = dose: 60.0 mg/kg/injection, schedule: Q01DX005 (ip), vehicle: saline with Tween-80
[4] = dose: 120.0 mg/kg/injection, schedule: Q01DX005 (ip), vehicle: saline with Tween-80
[5] = dose: 12.5 mg/kg/injection, schedule: Q01DX009 (ip), vehicle: saline with Tween-80
[6] = dose: 25.0 mg/kg/injection, schedule: Q01DX009 (ip), vehicle: saline with Tween-80
[7] = dose: 50.0 mg/kg/injection, schedule: Q01DX009 (ip), vehicle: saline with Tween-80

Measured: T/C

CCn1c2nc(=O)n(C)c(=O)c-2[n+]([O-])c2cc(C)ccc21
inactive: dose: 6.25 mg/kg/injection, schedule: Q04DX003 (ip), vehicle: saline with Tween-80 88 % of control | dose: 12.5 mg/kg/injection, schedule: Q04DX003 (ip), vehicle: saline with Tween-80 86 % of control | dose: 25.0 mg/kg/injection, schedule: Q04DX003 (ip), vehicle: saline with Tween-80 88 % of control | dose: 50.0 mg/kg/injection, schedule: Q04DX003 (ip), vehicle: saline with Tween-80 86 % of control

O=C1/C(=C/c2ccc3c(c2)OCO3)C2CCC(N2)/C1=C\c1ccc2c(c1)OCO2
inactive: dose: 50.0 mg/kg/injection, schedule: Q01DX001 (ip), vehicle: Klucel (hydroxypropylcellulose) (HPC) 103 % of control | [1] 96 % of control | [2] 96 % of control

Cc1ccc(/C2=C(\c3ccc(C)cc3)N(c3ccc(C)cc3)CCCCN2c2ccc(C)cc2)cc1
inactive: [1] 92 % of control | [2] 87 % of control | dose: 400.0 mg/kg/injection, schedule: Q01DX001 (ip), vehicle: Klucel (hydroxypropylcellulose) (HPC) 92 % of control

O=C1CC2CC(=O)C(S(=O)c3ccccc3)C2C1 (stereo unspecified)
inactive: [3] 96 % of control | [4] 99 % of control

CC(C)COC(=O)CN(CC(=O)OCC(C)C)c1ccccc1
inactive: dose: 100.0 mg/kg/injection, schedule: Q04DX003 (ip), vehicle: saline with Tween-80 109 % of control | dose: 200.0 mg/kg/injection, schedule: Q04DX003 (ip), vehicle: saline with Tween-80 104 % of control | dose: 400.0 mg/kg/injection, schedule: Q04DX003 (ip), vehicle: saline with Tween-80 113 % of control

O=C1NC2(CCCCC2)C(=O)N1CCCN1C(=O)NC2(CCCCC2)C1=O
inactive: [3] 107 % of control | [4] 102 % of control | dose: 240.0 mg/kg/injection, schedule: Q01DX005 (ip), vehicle: saline with Tween-80 101 % of control

CN1C(=O)c2ccccc2N=CN1C(=O)Nc1ccccc1
inactive: dose: 50.0 mg/kg/injection, schedule: Q01DX005 (ip), vehicle: saline with Tween-80 94 % of control | dose: 100.0 mg/kg/injection, schedule: Q01DX005 (ip), vehicle: saline with Tween-80 90 % of control | dose: 200.0 mg/kg/injection, schedule: Q01DX005 (ip), vehicle: saline with Tween-80 88 % of control

CCNC(=S)N/N=C/c1nccc(-c2ccccc2)c1C
inactive: dose: 25.0 mg/kg/injection, schedule: Q01DX009 (ip), vehicle: saline 117 % of control and 94 % of control | dose: 50.0 mg/kg/injection, schedule: Q01DX009 (ip), vehicle: saline 100 % of control and 103 % of control (2×) | dose: 100.0 mg/kg/injection, schedule: Q01DX009 (ip), vehicle: saline 99 % of control and 108 % of control | dose: 200.0 mg/kg/injection, schedule: Q01DX009 (ip), vehicle: saline 100 % of control

c1ccc(-c2cn3ccccc3n2)cc1
inactive: dose: 50.0 mg/kg/injection, schedule: Q01DX009 (ip), vehicle: Klucel (hydroxypropylcellulose) (HPC) 98 % of control | dose: 100.0 mg/kg/injection, schedule: Q01DX009 (ip), vehicle: Klucel (hydroxypropylcellulose) (HPC) 108 % of control | dose: 200.0 mg/kg/injection, schedule: Q01DX009 (ip), vehicle: Klucel (hydroxypropylcellulose) (HPC) 117 % of control

CC1CCC2C(C)C(=O)OC2C2(C)C(=O)C=CC12 (stereo unspecified)
inactive: [5] 103 % of control | [6] 113 % of control | [7] 110 % of control

CN(C)N=Nc1ccc(N(C)C)cc1
inactive: dose: 0.39 mg/kg/injection, schedule: Q01DX009 (ip), vehicle: Klucel (hydroxypropylcellulose) (HPC) 121 % of control | dose: 0.78 mg/kg/injection, schedule: Q01DX009 (ip), vehicle: Klucel (hydroxypropylcellulose) (HPC) 113 % of control and 114 % of control | dose: 1.56 mg/kg/injection, schedule: Q01DX009 (ip), vehicle: Klucel (hydroxypropylcellulose) (HPC) 113 % of control and 120 % of control | dose: 3.13 mg/kg/injection, schedule: Q01DX009 (ip), vehicle: Klucel (hydroxypropylcellulose) (HPC) 103 % of control and 118 % of control

Clc1ccc2c(ccc3cccnc32)n1
inactive: dose: 50.0 mg/kg/injection, schedule: Q04DX002 (ip), vehicle: saline with Tween-80 100 % of control | dose: 100.0 mg/kg/injection, schedule: Q04DX002 (ip), vehicle: saline with Tween-80 97 % of control | dose: 200.0 mg/kg/injection, schedule: Q04DX002 (ip), vehicle: saline with Tween-80 94 % of control

N#Cc1ccc([N+](=O)[O-])o1
inactive: [5] 100 % of control | [6] 90 % of control | [7] 95 % of control
